This is an account of results in US12577232B2, “N-heterocycle substituted tryptamine derivatives and methods of using” (ENVERIC B[…] INC., priority 2024, dated 2026).

Assay [1] concerns the target T1, 5-HT2A receptor (Homo sapiens, UniProt P28223).
T1 construct: purchased PerkinElmer ES-313-M400UA
In words: 5-HT2A receptor radioligand competition assay (SPA, [3H]ketanserin). The format is binding. Particulars: 1 nM [3H]ketanserin; membranes containing 5-HT2A; read-out: 5-HT2A, Ki. As to the method:
Competition assays were performed as for 5-HT1A assays with the following differences. […] Determination of non-specific binding was carried out in the presence of […] of spiperone (S7395-250MG, Sigma-Aldrich). Equilibrium binding constant for ketanserin (Kd) was determined from saturation binding curves using the ‘one-site saturation binding analysis’ method in GraphPad PRISM software (Version 9.2.0).

The test system of assay [2] is C57BL/6 mice. As to the kind of experiment: Mouse Head Twitch Response (HTR) assay to assess hallucinogenic potential. It is filed as in vivo. The conditions noted are these: for mean HTR / HTR compared with the HTR response for 5-Br-DMT (one-way ANOVA, Dunnett): 3 mg/kg i.p.; for mean HTR: 0-15 min interval (preliminary screening); for HTR compared with the HTR response for 5-Br-DMT (one-way ANOVA, Dunnett): alpha 0.05; for HTR: 0-15 min (dose curve). As to the method:
All experiments were approved by the University of Calgary Animal Care and Use Committee in accordance with Canadian Council on Animal Care guidelines. C57BL/6-Elite mixed sex mice were obtained from Charles River (8 weeks old). Until the first experiment, mice were group-housed, then single-housed on a 12:12 h light/dark schedule (lights on at 07:00 hours) with ad libitum access to food and water. Before any behavioral screening, mice were handled and exposed to the testing chamber for at least 5 min each day for three successive days and habituated to the experimental room 1 h before testing. The testing chamber was cleaned with a 70% ethanol solution between experiments to eliminate odor from other mice. Drug compounds (100 mM in DMSO) were diluted in sterile excipient (10% EtOH/15% PEG400 in ddH2O) to 3 mg/kg (preliminary screening) or 0.5, 2, 4, 7, and 10 mg/kg (dose-curve analysis) and administered using intraperitoneal (i.p.) drug injections. […] HTR was analyzed during the 0-to-15-minute window following drug administration. […] Mean HTR between 10 and 5 signifies reduced hallucinogenic potential relative to positive controls.

In assay [3] the target is T2, human serotonin transporter (SERT) (Homo sapiens, UniProt P31645).
T2 construct: purchased PerkinElmer RBHSTM400UA
As to the kind of experiment: biochemical. It is filed as binding. Particulars: 1 nM imipramine; membranes containing human SERT; read-out: SERT, Ki. As to the method: A commonly applied SERT binding assay involves competition binding assays employing radiolabelled ligands. […] Radioactive binding assays were carried out using the Scintillation Proximity Assay (SPA). For saturation binding assay, mixtures of 9 μg of membrane containing human SERT was pre-coupled to 1 mg of SPA beads at room temperature in a tube rotator for 1 hour in binding buffer (50 mM Tris-HCl pH7.4, 120 mM NaCl, 5 mM KCl, 1 mM ascorbic acid, 10 μM pargyline HCl). […] After incubation, the samples are read on a MicroBeta 2 Microplate Counter. Non-specific binding was carried out in the presence of 200 μM of clomipramine hydrochloride (C7291-1G, Sigma). Equilibrium binding constant for imipramine (KD) was determined from saturation binding curve using one-site saturation binding analysis from GraphPad PRISM software (Version 9.2.0). All test compounds were dissolved to 100 mM in DMSO and dilutions were carried out in assay buffer. […] Ki values were calculated from the competition displacement data using the competitive binding analysis from GraphPad PRISM software. […] Vehicle (DMSO) without drug was used as a negative control.

pKi: −log10 of the molar value. Bounds are passed on as bounds.

A word on the pKi: it is the negative decadic logarithm of the Ki, by convention in mol/L.

T2 sequence (P31645 whole entry): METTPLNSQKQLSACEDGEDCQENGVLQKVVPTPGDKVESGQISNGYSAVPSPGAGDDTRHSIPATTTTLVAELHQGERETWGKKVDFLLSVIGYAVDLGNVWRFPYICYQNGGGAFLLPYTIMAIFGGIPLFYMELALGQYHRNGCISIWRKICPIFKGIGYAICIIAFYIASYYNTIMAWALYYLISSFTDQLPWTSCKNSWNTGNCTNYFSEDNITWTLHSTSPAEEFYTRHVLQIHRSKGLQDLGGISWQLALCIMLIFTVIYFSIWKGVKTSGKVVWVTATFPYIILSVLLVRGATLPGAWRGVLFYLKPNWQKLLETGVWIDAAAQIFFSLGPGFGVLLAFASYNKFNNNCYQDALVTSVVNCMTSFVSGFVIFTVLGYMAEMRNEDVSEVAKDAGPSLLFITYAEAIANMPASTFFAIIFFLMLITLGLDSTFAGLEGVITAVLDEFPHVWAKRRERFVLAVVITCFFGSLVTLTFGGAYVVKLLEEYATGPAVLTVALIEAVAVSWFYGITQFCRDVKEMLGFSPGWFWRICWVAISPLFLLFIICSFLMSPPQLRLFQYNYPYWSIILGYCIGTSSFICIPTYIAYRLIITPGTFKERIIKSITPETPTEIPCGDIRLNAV
T1 sequence (P28223 whole entry): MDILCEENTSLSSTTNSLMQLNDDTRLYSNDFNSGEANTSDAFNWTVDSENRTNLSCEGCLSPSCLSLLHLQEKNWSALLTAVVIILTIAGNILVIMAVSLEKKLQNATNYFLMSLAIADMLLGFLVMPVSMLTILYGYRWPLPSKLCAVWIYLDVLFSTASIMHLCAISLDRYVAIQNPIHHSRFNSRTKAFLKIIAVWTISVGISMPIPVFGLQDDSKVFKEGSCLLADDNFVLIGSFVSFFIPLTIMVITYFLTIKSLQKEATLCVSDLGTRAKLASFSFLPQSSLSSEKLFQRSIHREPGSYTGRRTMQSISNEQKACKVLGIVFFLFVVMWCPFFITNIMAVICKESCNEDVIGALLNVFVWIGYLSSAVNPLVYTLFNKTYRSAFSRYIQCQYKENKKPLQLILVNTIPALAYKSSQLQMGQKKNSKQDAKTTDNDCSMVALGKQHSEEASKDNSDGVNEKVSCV

With `CN(C)CCc1c[nH]c2cc(N3CCC3)ccc12` [Compound (XII)], the results for the pKi in assay [1] and in assay [3] were 4.63 and 5.77, respectively. Further, the “mean HTR” value in assay [2] is recorded as 6.25. For the same compound, the “HTR compared with the HTR response for 5-Br-DMT (one-way ANOVA, Dunnett)” value (“HTR compared with the HTR response” below) in assay [2] is on record as “not statistically significantly higher”. Further, the values for the HTR in assay [2] (7 mg/kg i.p.) and in assay [2] (10 mg/kg i.p. (maximum dose)) were ~20 and ~12, respectively.

Consider `CN(C)CCc1c[nH]c2cc(F)cc(N3CCOCC3)c12` [Compound (XV)], for which the pKi in assay [1] is 6.14. Further, in assay [2], the “mean HTR” value is 5.0±0.82 and the “HTR compared with the HTR response” value is listed as “not statistically significantly higher”. Moreover, the “HTR over increasing dosage” value in assay [2] (0.5-10 mg/kg i.p., 0-15 min) is “remains low”. Further, the pKi in assay [3] is 5.04.

For `CC(C)N(C)CCc1c[nH]c2cc(N3CCOCC3)c(F)cc12` [Compound (XVII)], in assay [1], the negative-log Ki (pKi) is 5.08. In addition, in assay [2], the “mean HTR” value stood at 22.25. Further, the HTR in assay [2] (10 mg/kg i.p. (maximum dose)) is ~40.

For `CN(C)CCc1c[nH]c2cc(N3CCCC3)cc(F)c12` [Compound (XVIII)], the pKi in assay [1] was 5.21; in assay [3] it was 4.41. Also, in assay [2], the “mean HTR” value amounted to 5.25. Also, in assay [2], the “HTR compared with the HTR response” value is “not statistically significantly higher”. Further, in assay [2] (10 mg/kg i.p. (maximum dose)), the HTR is on record as > 20.
